Data: US11000524B2, “Tyrosine kinase inhibition as a treatment for epilepsy” (Iowa State University Research Foundation, Inc., priority 2016, dated 2021)

What was measured:
[1] = system: hippocampal in vitro model; settings: Salter and Kalia, 2004, Sanna et al., 2000; cited from earlier work
[2] = system: kainate-induced SE in C57BL/6J mice; assay: Saracatinib pretreatment 4 h before kainate-induced status epilepticus (behavioral seizure scoring, modified Racine scale); assay type: in vivo; settings: for mortality during SE / latency to the onset of first CS: saracatinib 25 mg/kg oral 4 h prior to SHD kainate 25 mg/kg i.p.; for mortality during SE: about 20% in vehicle group
Description: We tested Fyn knockout mice (fyn^−/−), bred on C57BL/6J hybrid background mouse (fyn^+/+), and in wildtype C57BL/6J mice treated with the fyn kinase inhibitor, Saracatinib ([…], 25 mg/kg, oral, single dose) 4 h prior to the induction of SE with KA (5 mg/kg, i.p. at 30 min intervals or as a single high dose of 25 mg/kg). Two hours after the established SE, the behavioral SE was terminated with diazepam (10 mg/kg, i.p.). The animals were euthanized with pentobarbitone (100 mg/kg, i.p.) at 4 h, 24 h and 7d (for IHC & WB) and 4 weeks (video-EEG group) post-SE. The brain, serum, and cerebrospinal fluid (CSF) were collected for various analyses. […] We examined the time-dependent activation of fyn in microglial cells and initiation of neuro-inflammatory and neurodegenerative mechanisms in the hippocampus at 4 h, 24 h and 7 day time points post-SE. We also performed electroencephalographic (EEG) analysis to determine the spike rate and SRS frequency.
Thirty C57BL/6J mice were used for the saracatinib experiment. In this experiment, 15 mice were treated with saracatinib (25 mg/kg, oral gavage as a single dose) at 4 h prior to a single high dose (SHD) of kainate (25 mg/kg, i. p), while the remaining 15 mice were given the vehicle [0.5% hydroxypropyl methylcellulose in 0.1% tween 80] 4 h prior to kainate.
All animals administered with kainate were subjected to video recording. The seizures were staged and the SE was scored by direct observation of animals during the 2 h SE and exact duration of each stage of seizure was calculated. The video recordings were used for secondary analysis and for independent verification of seizures by two different personnel who were not involved in direct scoring during the experiments. The personnel who did the behavioral analysis were blind to the experimental groups. The behavioral seizures were scored based on modified Racine scale from stage 1 to 5 as described previously (Beamer et al., 2012; Puttachary et al., 2015b; Racine, 1972; Tse et al., 2014). Briefly, the staging was as follows: stage 1, absence-like immobility; stage-2, hunching with facial or manual automatisms evident from brisk movement of vibrissae and repeated grooming of the face; stage 3, rearing with forelimb clonus and facial or manual automatisms; stage 4, repeated rearing with continuous forelimb clonus and falling; and stage-5, generalized tonic clonic convulsions with lateral recumbence or jumping and/or wild running followed by generalized convulsions. Stage 1 and stage 2 were categorized as non-convulsive seizures (NCS) and stage ≥3 as convulsive seizures (CS) (Beamer et al., 2012; Puttachary et al., 2015b; Tse et al., 2014). The latency to the onset of CS and the duration of seizures were analyzed for each animal within a group as described previously (Puttachary et al., 2015b; Tse et al., 2014). The duration of CS is the total time spent by an animal in stage ≥3 during the 2 h of established SE until the diazepam was administered. Since a very few animals reached stage 5 in the saracatinib pretreated group and in the fyn^−/− mice, we considered stage ≥3 as the starting point for 2 h established SE. The data were analyzed and the severity of seizures, duration of CS, latency to CS onset, and mortality rate were compared between the groups.
In all kainate-treated animals, the behavior seizures were terminated with diazepam (10 mg/kg, i.p.) at 2 h after the first onset of convulsive seizure. The 2 h duration between the onset of convulsive seizure and the diazepam treatment was considered as 2 h established SE. During this period, all wildtype control mice had continuous convulsive seizures for >30 min. All kainate-treated animals received 1 mL of Ringer's lactate solution (s.c.) twice a day for three days to enable them to recover from dehydration and the lost bodyweight due to SE.

[3] = LC-MS of saracatinib in hippocampal tissue (blood brain barrier crossing); assay type: in vivo, C57BL/6J mice
Description: For the LC-MS the optimum dose of saracatinib for our experiment was based on the published literature (Green et al., 2009; Hannon et al., 2010; Liu et al., 2012; Yang et al., 2010). […] The mice hippocampal tissues were homogenized in ˜0.2 mL 1:1 methanol:water using bullet blender. An additional 125 μL HPLC grade water was added to the homogenized samples. This was followed by three similar successive extractions with 375 μL 3:1 acetonitrile:water. The homogenate was sonicated for 10 min in a sonication water bath. The sample was pelleted by centrifugation at 13,000 g for 7 min and the supernatant was collected after each extraction and the samples were pooled. […]
The LC-MS analysis for saracatinib was conducted using an Agilent Technologies 1290 Infinity Binary Pump UHPLC system coupled to an Agilent Technologies 6540 UHD Accurate-Mass Q-TOF mass spectrometer in high resolution mode ([…]) and scanning m/z 100-1700. […] Saracatinib detection is represented by extracted ion chromatogram (EIC) using a 10 ppm extraction window and was analyzed (FIG. 1E) using Agilent Mass Hunter Qualitative Analysis B.07.00 software. The X-axis on the EIC represents retention time and the Y-axis represents the abundance of ions detected. Saracatinib concentrations were observed as the area of the EIC peaks and was calculated based on the linear curve of the observed peak areas of standards. […]

[4] = system: rat kainate model of TLE; assay: Saracatinib post-treatment in the rat kainate model of TLE, 28 days continuous video-EEG; assay type: in vivo, Sprague Dawley rats; settings: for rats that did not develop epilepsy (of seven treated): 25 mg/kg oral from 2 h post-diazepam, twice daily 3 days then daily 4 days
Description: Rats were used in the following example. The rats were treated as per the materials and methods of Examples 2-10 except for the following. Fourteen rats were used and implanted with telemetry device 10 days prior to the induction of SE, with RLD of kainate, as described previously (Puttachary et al., 2016b). The telemetry device used was CTA-F40 PhysioTel™ telemetry device (Data Science International, Minneapolis, USA) for video-EEG recording.
Disabling the Fyn kinase function, either by pretreatment with saracatinib or fyn KO, prior to SE induction impacts the initial severity of SE and thus compromises the epileptogenic events. Therefore, we tested the effect of Fyn kinase inhibition with the saracatinib on epileptogenesis after the induction of SE in the rat kainate model of TLE. To mimic human TLE from translational view point, the rat kainate model is more suitable in terms of progressive nature of the disease since the frequency of spontaneous CS consistently increases over time in rats in contrast to the mouse kainate model (Puttachary et al., 2015b and 2016b). Therefore, we tested the saracatinib in the rat kainate model after terminating the behavioral SE with diazepam. The saracatinib (25 mg/kg, oral) was administered at 2 h post-diazepam and repeated twice daily for first three days followed by a single dose daily for the next four days during the first week of post-SE period. The treatment regimen was chosen based on increase in Fyn and PKCδ levels during the first week of post-SE in the mouse model.

[5] = system: rat kainate model of epilepsy; assay: Saracatinib post-treatment in the rat kainate model of epilepsy, 4 months video-EEG study; assay type: in vivo, rats; settings: four months monitoring
Description: Fifteen rats (n=8 for control and 7 for SAR) were studied over the course of four months. Treatments and methods used in Example 12 were followed for this Example except for the extended time and the SAR/vehicle was administered 2 h after stopping the seizures (SE) with diazepam. The SAR was given at 25 mg/kg, oral twice daily for three days followed by daily for next four days. The drug was NOT administered after 7-day time point.

[6] = saracatinib 25 mg/kg oral single dose 4 h prior to kainate, vs vehicle, 2 h established SE

CC(C)(C)n1nc(-c2ccc(Cl)cc2)c2c(N)ncnc21 [PP2]
frequency of epileptiform discharges [1]: reduces frequency of epileptiform discharges

CN1CCN(CCOc2cc(OC3CCOCC3)c3c(Nc4c(Cl)ccc5c4OCO5)ncnc3c2)CC1 [saracatinib, N-(5-chloro-1,3-benzodioxol-4-yl)-7-[2-(4-methylpiperazin-1-yl)ethoxy]-5-(oxan-4-yloxy)quinazolin-4-amine]
mice that reached stage 5 seizure ([2]; SHD kainate 25 mg/kg, 67% in vehicle group): 7% | mortality during SE [2]: no mortality | mortality during SE ([2]; listed as SAR): reducing seizure severity and morality rate | latency to the onset of first CS ([2]; vs vehicle): increased latency | latency to the onset of first CS ([2]; vs vehicle, listed as SAR): increasing the latency of seizure onset | duration of convulsive seizures (CS) [2, 6]: significant reduction | seizure severity [2, 6]: significant reduction | seizure severity ([2]; saracatinib 25 mg/kg oral single dose 4 h prior to kainate, vs vehicle, 2 h established SE, listed as SAR): reducing seizure severity | crossing of the blood brain barrier (BBB) ([3]; LC-MS of hippocampus after 25 mg/kg oral): crossed the BBB | persistence in hippocampus, 8 h compared to 28 h ([3]; LC-MS, FIG. 1F): persisted in the hippocampus at higher levels at 8 h post-SE when compared to 28 h post-administration | rats that did not develop epilepsy (of seven treated) ([4]; 28 d post-SE): four out of seven | rats that did not develop epilepsy (of seven treated) ([4]; 28 d post-SE, listed as SAR): four | epileptiform spike counts / spiking frequency vs vehicle ([4]; 28 d post-SE, video-EEG): significantly reduced | number of spontaneous CS vs vehicle ([4]; 28 d post-SE, video-EEG): significantly reduced | number of spontaneous CS vs vehicle ([4]; 28 d post-SE, video-EEG, listed as SAR): significant reduction | initial SE severity vs vehicle group ([4]; before treatment (post-SE dosing)): no significant difference | rats not responding to treatment ([4]; of seven treated rats): one rat did not respond | number of spontaneous CS in a month (two rats) ([4]; two of seven treated rats, >24 episodes in vehicle group): < 10 | rats in which development of epilepsy was completely prevented (of seven) ([5]; 25 mg/kg oral twice daily 3 days then daily 4 days): four out of seven | animals not responding [5]: one animal did not respond | seizures in the other animals [5]: significantly reduced seizures
